Results on 4 molecules are retold here after patent publication US12643926B2, “LysM receptor motifs” (Aarhus Universitet, priority 2020, dated 2026).

The target of assay [1] is T1, Medicago truncatula NFP ectodomain (residues 28-246) double mutant L147D L154D (Medicago truncatula, UniProt Q0GXS4, L147D/L154D).
T1 construct: The M. truncatula NFP ectodomain (residues 28-246); AcMNPV gp67 signal peptide, replaces the native signal peptide (N); hexa-histidine (C); made in house; host or cells: Sf9 insect cells (Spodoptera frugiperda), baculovirus
Description: biolayer interferometry (BLI) binding of S. meliloti Nod factor LCO-IV to NFP L147D L154D ectodomain. The note with it: double mutant vs WT. Here is the method: (§1) The M. truncatula NFP ectodomain (residues 28-246) was codon-optimized for insect cell expression (Genscript, Piscataway, USA) and cloned into the pOET4 baculovirus transfer vector (Oxford Expression Technologies). The native NFP signal peptide (residues 1-27, predicted by SignalP 4.1) was replaced with the AcMNPV gp67 signal peptide to facilitate secretion and a hexa-histidine tag was added to the C-terminus. Recombinant baculoviruses were produced in […] (Spodoptera frugiperda) using the FlashBac Gold kit (Oxford Expression technologies) according to the manufacturer's instructions with Lipofectin (ThermoFisher Scientific) as a transfection reagent. Protein expression was performed as follows. Suspension-cultured Sf9 cells were maintained with shaking at 299 K in serum-free MAX-XP (BD-Biosciences, discontinued) or HyClone SFX (GE Healthcare) medium supplemented with 1% Pen-Strep (10000 U/ml, Life technologies) and 1% CD lipid concentrate (Gibco). Protein expression was induced by adding recombinant passage 3 virus once the Sf9 cells reached a cell density of 1.0*10^6 cells/ml. After 5-7 days of expression, medium supernatant containing NFP ectodomains was harvested by centrifugation. This was followed by an overnight dialysis step against 50 mM Tris-HCl pH 8, 200 mM NaCl at 277 K. The NFP ectodomain was enriched by two subsequent steps of Ni-IMAC purification (HisTrap excel/HisTrap HP, both GE Healthcare). For crystallography, N-glycans were removed using the endoglycosidase PNGase F (1:15 (w/w), room temperature, overnight). As a final purification step, NFP ectodomains was purified by SEC on a Superdex 200 10/300 or HiLoad Superdex 200 16/600 (both GE Healthcare) in phosphate buffered saline at pH 7.2 supplemented to a total of 500 mM NaCl (for binding assays) or 50 mM Tris-HCl, 200 mM NaCl (for crystallography). NFP ectodomain eluted as a single, homogeneous peak corresponding to a monomer.
The M. truncatula NFP leucine residues L147 and L154 were replaced with aspartate residues. Aspartate is similar in size to leucine, but negatively charged where leucine is hydrophobic. Point mutants of NFP were engineered using site-directed mutagenesis. In particular, a double-mutated NFP was engineered where the leucine residues L147 and L154 were replaced with aspartate residues to create the mutant NFP L147D L154D. Point mutated versions of the NFP ectodomain were expressed and purified as described above.
(§2) The binding assay using NFP wild type (WT) was replicated seven times, while the binding assay using the NFP mutant NFP L147D L154D was replicated four times.
(§3) Binding of NFP WT and NFP L147D/L154D mutant to S. meliloti Nod factor LCO-IV was measured on an Octet RED 96 system (Pall ForteBio). S. meliloti Nod factor LCO-IV consists of a tetrameric/pentameric N-acetylglucosamine backbone that is O-sulfated on the reducing terminal residue, O-acetylated on the non-reducing terminal residue, and mono-N-acylated by unsaturated C16 acyl groups. Biotinylated ligand conjugates were immobilized on streptavidin biosensors (kinetic quality, Pall ForteBio) at a concentration of 125-250 nM for 5 minutes. The binding assays were replicated 7 times for the NFP WT, and 4 times for the NFP L147D/L154D mutant. Data analysis was performed in GraphPad Prism 6 software (GraphPad Software, Inc.). Equilibrium dissociation constants derived from the steady-state were determined by applying a non-linear regression (one site, specific binding) to the response at equilibrium plotted against the protein concentration. Kinetic parameters were determined by non-linear regression (association followed by dissociation) on the subtracted data. Table 9 summarizes the kinetic parameters of FIGS. 18C-18D, with goodness of fit described by the global fit R^2 on the mean value of each point, and number of replicates performed using independent protein preparations (n) indicated.

Assay [2] has as its target T2, Medicago truncatula NFP ectodomain, wild type (residues 28-246) (Medicago truncatula, UniProt Q0GXS4).
T2 construct: The M. truncatula NFP ectodomain (residues 28-246); AcMNPV gp67 signal peptide, replaces the native signal peptide (N); hexa-histidine (C); made in house; host or cells: Sf9 insect cells (Spodoptera frugiperda), baculovirus
Description: biolayer interferometry (BLI) binding of S. meliloti Nod factor LCO-IV to NFP WT ectodomain. Particulars: n = 7. The procedure:
as §1, §2
Binding of NFP WT and NFP L147D/L154D mutant to S. meliloti Nod factor LCO-IV was measured on an Octet RED 96 system (Pall ForteBio). […] Equilibrium dissociation constants derived from the steady-state were determined by applying a non-linear regression (one site, specific binding) to the response at equilibrium plotted against the protein concentration. Kinetic parameters were determined by non-linear regression (association followed by dissociation) on the subtracted data. […]

The test system of assay [3] is L. japonicus nfr1-1 loss-of-function mutant. Description: Nodulation assay: complementation of L. japonicus nfr1-1 hairy roots after M. loti R7A DsRed inoculation. It counts as in vivo, Lotus japonicus. Particulars: Nfr1 promoter, five weeks post inoculation. The procedure:
A. rhizogenes carrying the expression constructs of interest were grown for two days on solid medium. The cells of one plate were resuspended in 2 ml YMB media, and this process was repeated for each construct. A 1 ml syringe with a needle (Sterican Ø0.40×20 mm) was then used to transform the plants, whereby the needle was used to puncture the hypocotyl and a droplet with the bacterial suspension was placed on the wound. Petri dishes containing the transformed roots were sealed and left in the dark for two days and then moved to 21° C. under 16 hour light/8 hour dark conditions. After three weeks, plants with transformed roots were moved to Magenta boxes (Sigma-Aldrich) filled with a 4:1 mixture of lightweight expanded clay aggregate (LECA, 2-4 mm; Saint-Gobain Weber A/S) and vermiculite (size M; Damolin A/S) supplemented with 80 ml nitrogen-free ¼× B&D nutrient solution. All plants were grown at 21° C. under 16 hour light/8 hour dark conditions.
Chimeric receptors under the control of the Nfr1 promoter were tested for their ability to complement a L. japonicus nfr1-1 loss-of-function mutant that is unable to develop root nodules (Radutoiu, S. et al. Nature 2003 425). […] At five weeks post inoculation, nodules were counted and images were acquired with a Leica FluoStereo M165FC microscope equipped with the Leica DFC310 FX camera. […]

The test system of assay [4] is M. truncatula nfp mutants. Description: Complementation assay of M. truncatula nfp mutants, inoculation with S. meliloti strain 2011. It counts as in vivo, Medicago truncatula. The note with it: nfp mutant roots; 6-7 weeks after inoculation with S. meliloti strain 2011. From the text:
Construct assembly, plant growth conditions, hairy root transformations, nodulation and ROS assays were generally conducted as described in Bozsoki, et al. 2017 (Bozsoki, Z. et al. Proc. Natl. Acad. Sci. 2017 114: E8118-E8127). The tested transgenes were the mutated LysM receptors described above.

The nature of assay [5]: Biolayer interferometry of A. thaliana CERK1 binding to chitin fragments. The note with it: BLI; CO5 and CO8; result in words. The procedure:
as §3, with “Table 9 summarizes the kinetic parameters of FIGS. 18C-18D, with goodness of fit described by the global fit R^2 on the mean value of each point, and number of replicates performed using independent protein preparations (n) indicated.” left out
Binding of A. thaliana CERK1 (AtCERK1) to chitopentaose (CO5) and chitooctaose (CO8) was measured in the same way.

“Also recorded” adds a separate entry of the source. Read-outs that look alike come from different tables or passages of the source.

T1 sequence (Q0GXS4 28-246 L147D/L154D): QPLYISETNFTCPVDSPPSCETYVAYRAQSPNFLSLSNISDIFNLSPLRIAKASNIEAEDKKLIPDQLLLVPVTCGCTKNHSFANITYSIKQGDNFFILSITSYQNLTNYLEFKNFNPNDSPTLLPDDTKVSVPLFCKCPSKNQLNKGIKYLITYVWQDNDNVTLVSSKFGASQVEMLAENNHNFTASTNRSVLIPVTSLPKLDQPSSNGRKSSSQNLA

As for `CCCCCC/C=C\CCCCC/C=C/C(=O)N[C@H]1[C@H](O[C@H]2[C@H](O)[C@@H](NC(C)=O)[C@H](O[C@H]3[C@H](O)[C@@H](NC(C)=O)[C@H](O[C@H]4[C@H](O)[C@@H](NC(C)=O)C(O)O[C@@H]4COS(=O)(=O)O)O[C@@H]3CO)O[C@@H]2CO)O[C@H](COC(C)=O)[C@@H](O)[C@@H]1O` (stereo partly shown) [S. meliloti Nod factor LCO-IV], in assay [1], the “affinity versus NFP WT (Table 8 data)” value is listed as “approximately two times lower affinity”; the “association (Kon) versus NFP WT (Table 8 data)” value is given as “almost unaffected”; the “association rate (kon), fold faster than WT (Table 9 data)” value is 4.5 fold; the “dissociation (Koff), times faster than NFP WT (Table 8 data)” value is “approximately 15 times”. Also, in assay [1], the “dissociation rate (koff), fold increase over WT (Table 9 data)” value is given as 59 fold and the “lower affinity compared to WT NFP ectodomain (Table 9 data)” value is 13 fold. In assay [2] (Table 8, read-out: A (converted)), the kon is 0.958 M⁻¹ s⁻¹. Also, in assay [2] (Table 8, read-out: D (converted)), the koff is 2.48e-05 s⁻¹. In addition, in assay [2] (Table 9, BLI, read-out: koff), the koff stood at 0.00064 s⁻¹. For the same molecule, the kon in assay [2] (Table 9, BLI, read-out: kon) was found to be 50.3 M⁻¹ s⁻¹.

B1: construct 41: Nfr1 promoter; LYK3 (protein, UniProt Q6UD73 1-620, looked up)
chain: MNLKNGLLLFILFLDCVFFKVESKCVKGCDVALASYYIIPSIQLRNISNFMQSKIVLTNSFDVIMSYNRDVVFDKSGLISYTRINVPFPCECIGGEFLGHVFEYTTKEGDDYDLIANTYYASLTTVELLKKFNSYDPNHIPVKAKINVTVICSCGNSQISKDYGLFVTYPLRSDDTLAKIATKAGLDEGLIQNFNQDANFSIGSGIVFIPGRDQNGHFFPLYSRTGIAKGSAVGIAMAGIFGLLLFVIYIYAKYFQKKEEEKTKLPQTSRAFSTQDASGSAEYETSGSSGHATGSAAGLTGIMVAKSTEFTYQELAKATNNFSLDNKIGQGGFGAVYYAELRGEKTAIKKMDVQASSEFLCELKVLTHVHHLNLVRLIGYCVEGSLFLVYEHIDNGNLGQYLHGIGTEPLPWSSRVQIALDSARGLEYIHEHTVPVYIHRDVKSANILIDKNLRGKVADFGLTKLIEVGNSTLHTRLVGTFGYMPPEYAQYGDVSPKIDVYAFGVVLYELITAKNAVLKTGESVAESKGLVQLFEEALHRMDPLEGLRKLVDPRLKENYPIDSVLKMAQLGRACTRDNPLLRPSMRSIVVALMTLSSPTEDCDDDSSYENQSLINLLSTR
modifications: full-length expressed from Nfr1 promoter
notes: Nfr1 promoter; LYK3
On to B1, for which the “nodule formation (complementation of nfr1)” value in assay [3] is listed as “absence of nodulation; also recorded: signaling incompetent”.

B2: wild type M. truncatula NFP gene: wild type M. truncatula NFP transgene used to transform nfp mutant roots (protein, UniProt Q0GXS4 1-595, looked up)
chain: MSAFFLPSSSHALFLVLMLFFLTNISAQPLYISETNFTCPVDSPPSCETYVAYRAQSPNFLSLSNISDIFNLSPLRIAKASNIEAEDKKLIPDQLLLVPVTCGCTKNHSFANITYSIKQGDNFFILSITSYQNLTNYLEFKNFNPNLSPTLLPLDTKVSVPLFCKCPSKNQLNKGIKYLITYVWQDNDNVTLVSSKFGASQVEMLAENNHNFTASTNRSVLIPVTSLPKLDQPSSNGRKSSSQNLALIIGISLGSAFFILVLTLSLVYVYCLKMKRLNRSTSSSETADKLLSGVSGYVSKPTMYEIDAIMEGTTNLSDNCKIGESVYKANIDGRVLAVKKIKKDASEELKILQKVNHGNLVKLMGVSSDNDGNCFLVYEYAENGSLEEWLFSESSKTSNSVVSLTWSQRITIAMDVAIGLQYMHEHTYPRIIHRDITTSNILLGSNFKAKIANFGMARTSTNSMMPKIDVFAFGVVLIELLTGKKAMTTKENGEVVILWKDFWKIFDLEGNREERLRKWMDPKLESFYPIDNALSLASLAVNCTADKSLSRPTIAEIVLCLSLLNQPSSEPMLERSLTSGLDAEATHVVTSVIAR
modifications: full-length
notes: wild type M. truncatula NFP transgene used to transform nfp mutant roots
Consider B2, for which the “average nodules per plant” value in assay [4] is reported as 10 nodules per plant.

B3: A. thaliana CERK1: A. thaliana LysM chitin receptor CERK1 (protein, UniProt A8R7E6 24-617, looked up)
Chitin elicitor receptor …: KCRTSCPLALASYYLENGTTLSVINQNLNSSIAPYDQINFDPILRYNSNIKDKDRIQMGSRVLVPFPCECQPGDFLGHNFSYSVRQEDTYERVAISNYANLTTMESLQARNPFPATNIPLSATLNVLVNCSCGDESVSKDFGLFVTYPLRPEDSLSSIARSSGVSADILQRYNPGVNFNSGNGIVYVPGRDPNGAFPPFKSSKQDGVGAGVIAGIVIGVIVALLLILFIVYYAYRKNKSKGDSFSSSIPLSTKADHASSTSLQSGGLGGAGVSPGIAAISVDKSVEFSLEELAKATDNFNLSFKIGQGGFGAVYYAELRGEKAAIKKMDMEASKQFLAELKVLTRVHHVNLVRLIGYCVEGSLFLVYEYVENGNLGQHLHGSGREPLPWTKRVQIALDSARGLEYIHEHTVPVYVHRDIKSANILIDQKFRAKVADFGLTKLTEVGGSATRGAMGTFGYMAPETVYGEVSAKVDVYAFGVVLYELISAKGAVVKMTEAVGEFRGLVGVFEESFKETDKEEALRKIIDPRLGDSYPFDSVYKMAELGKACTQENAQLRPSMRYIVVALSTLFSSTGNWDVGNFQNEDLVSLMSGR
With B3, in assay [5], the “binding kinetics to chitin fragments” value was “fast association and dissociation rates”.
